Source: patent US10987366B2, “Methods and compositions for protection of cells and tissues from computed tomography radiation” (The University of Chicago, priority 2010, dated 2021)

Columns and labels:
[1] = test system: RKO36 cells; assay: GFP direct repeat assay of delayed hyperrecombination (GFP+/- colonies); assay type: cell-based, human
Text: Gene conversion can produce a local loss of heterozygosity (LOH) as well as deletions and inversions at linked repeats and translocations (Nickoloff, 2002). The inventor has utilized a green fluorescence protein (GFP)-based assay using human RKO-derived cells to study the role of delayed hyper-recombination in radiation-induced genomic instability (Huang et al., 2004). A GFP direct repeat homologous recombination substrate is incorporated in RKO cells.
Genomic instability can be measured by analysis of delayed hyperrecombination and mutation/deletion at the GFP direct repeat substrate. GFP-RKO cells can be GFP− or GFP+. When these cells are plated, colonies arising from single cells are either homogenously colorless (GFP−) or green (GFP+). […] Mixed colonies arise by delayed hyperrecombination and can easily be scored using the criteria of having at least >4 cells per colony having an altered fluorescent phenotype. The frequency of induced instability can be calculated as the number of GFP+/− colonies per total surviving colonies scored.
Genomic instability was evaluated in RKO36 cells by analysis of delayed hyperrecombination and mutation/deletion at the GFP direct repeat substrate. […] The frequency of induced instability is calculated as the number of GFP+/− colonies per total surviving colonies scored (Huang et al., 2004). […]

[2] = test system: RKO36 cells; assay: Micronuclei formation in irradiated RKO36 cells; assay type: cell-based, human
Method: Under the treatment conditions in which cells were exposed to WR1065 either 30 min before or 3 h following irradiation the protective effect is the result of a direct interaction between the thiol taken up by the cells and the damage induced by radiation. This direct protective effect disappeared when the drug was added 6 h following irradiation. However, when cells were exposed to the thiol 24 h prior to irradiation to allow for the induction of elevated MnSOD enzyme levels, a protective effect was again observed ([…]). In contrast to the data described in FIG. 4A, the protection described in FIG. 4B was mediated not directly by thiol action (Grdina et al., 1995) but as a result of a thiol-induced adaptive response mediated through the activation of NFκB resulting in the elevation of MnSOD activity (Murley et al., 2002; Murley et al., 2004; Murley et al., 2006; Murley et al., 2007; Murley et al., 2008). For comparison, a radiation-induced adaptive response was investigated by first exposing RKO36 cells to 10 cGy and then challenging with a 2 Gy dose 0, 4, 8, 12, 16, 20, and 24 h later (see FIG. 5).

Structure (SMILES): NCCCNCCS [WR1065, 2-[(aminopropyl)amino]ethanethiol]
- frequency of GFP+/- colonies ([1]; 4 mM WR1065 for 30 min, no irradiation, P=0.02 vs non-WR1065 irradiated cells (2.7%)): 1.1%
- frequency of GFP+/- colonies ([1]; 10 cGy given 24 h following 4 mM WR1065 for 30 min, P=0.05 vs non-WR1065 irradiated cells (2.7%)): 1.6%
- micronuclei formation, thiol-induced adaptive response ([2]; 2 Gy challenge 24 h following WR1065 exposure): reduction of micronuclei formation to unirradiated background levels
- frequency of micronuclei formation ([2]; 2 Gy, WR1065 30 min following irradiation (FIG. 4B)): significantly reduced
- frequency of micronuclei formation ([2]; 2 Gy, WR1065 30 min prior to irradiation (FIG. 4A)): significantly reduced
- frequency of micronuclei formation ([2]; 2 Gy, WR1065 1 h following irradiation (FIG. 4B)): significantly reduced
- frequency of micronuclei formation ([2]; 2 Gy, WR1065 2 h following irradiation (FIG. 4B)): significantly reduced
- frequency of micronuclei formation ([2]; 2 Gy, WR1065 3 h following irradiation (FIG. 4B)): significantly reduced
- frequency of micronuclei formation ([2]; 2 Gy, WR1065 24 h prior to irradiation (FIG. 4A)): significantly reduced
- direct protective effect against micronuclei formation ([2]; 2 Gy, drug added 6 h following irradiation): disappeared
